Measurements reported in patent publication US7855076B2, “Use of discoidin domain receptor 1 (DDR1) and agents that affect the DDR1/collagen pathway” (The United States of America as represented by the …, priority 2002, dated 2010).
One block for each compound: values may come before it.

Tests used:
Assay type in all cases: cell-based, human
THP-1 cells [1] = assay: Cytokine and chemokine release from PMA-treated THP-1 cells by ELISA; conditions: DDR1b-overexpressing THP-1 cells, PMA, collagen-coated plates, 48 hours
Procedure: The production of DDR1a- or 1b-overexpressing THP-1 cells was previously described (Kamohara et al., FASEB J. 15:2724, 2001). Briefly, the human monocytic leukemic cell line, THP-1, was transduced with control retrovirus containing the vector only (mock-transduced) or retrovirus expressing DDR1a or DDR1b. THP-1 cells transduced by each virus were selected with G418, and cloned by limiting dilution. The cloned THP-1 cells were maintained in RPMI 1640 medium supplemented with 100 μg/ml gentamycin and 10% FCS (complete medium). Cells were plated at 1×10^6/ml and treated with PMA (10 nM) for variable times on uncoated or collagen-coated tissue culture plates for quantification of cytokine or chemokine release.
In addition, the concentration of MCP-1 in the culture supernatant of each cell line was measured by ELISA. The concentration of MCP-1 was measured in the Lymphokine Testing Laboratory, Clinical Services Program, SAIC-Frederick (Frederick, Md.) by using an enzyme-linked immunosorbent assay (ELISA) kit (R&D Systems, Minneapolis, Minn.) specific for the chemokine.
In addition, the concentrations of IL-1β, IL-8, and MIP-1α in the culture supernatants of each cell line were quantified by ELISA (FIG. 6). The concentration of IL-1β, IL-8, and MIP-1α were measured in the Lymphokine Testing Laboratory, Clinical Services Program, SAIC-Frederick (Frederick, Md.) by using enzyme-linked immunosorbent assay (ELISA) kits (R&D Systems, Minneapolis, Minn.) specific for each human cytokine and chemokine. […]

NF-κB [2] = assay: Nuclear translocation of NF-κB by EMSA; conditions: DDR1b-overexpressing cells on collagen-coated plates
Procedure: Nuclear translocation of NF-κB was examined by EMSA. Nuclear extracts were prepared by a method previously reported (Ueda et al., J. Biol. Chem. 272:31092, 1997), and aliquots were frozen at −80° C. For EMSA, end-labeled ^32P-oligonucleotide probes corresponding to the NF-KB binding site of the Ig κ-chain (5′-[…]-3′) (SEQ ID NO: 15) or MCP-1 (A2 site; 5′-[…]-3′) (SEQ ID NO: 16) gene were used. Each probe was incubated with 5 μg of nuclear extracts in 20 μl of binding cocktail (50 mM Tris-HCl, pH 7.4, 25 MM MgCl2, 0.5 mM DTT, 50% glycerol) at 4° C. for 15 minutes. The DNA-protein complexes were resolved on a 5% polyacrylanide gel. The dried gels were exposed to X-ray films.

NF-κB [3] = assay: NF-κB luciferase reporter assay in THP-1 cells; conditions: DDR1b-overexpressing cells, 12 hours
Procedure: For the results shown in FIG. 7A, mock-transduced or DDR1b-overexpressing THP-1 cells were transfected with 10 μg of the NF-κB-Luc plasmid and 5 μg of pSV-β-galactosidese plasmid DNA (Promega, Madison, Wis.) per 100-mm tissue culture plate using Effectene Transfection Reagent (Qiagen, Valencia, Calif.), according to the manufacture's protocol. After a 12-hour incubation, cells were rinsed with phosphate buffered saline (PBS) and then incubated with 10 nM PMA on collagen-coated plates in the presence of absence of SB203580, PD98059, CAPE or dimethlysulfoxide (DMSO) for another 12 hours. Cells were collected and lysed using the Reporter Lysis Buffer (Promega, Madison, Wis.), and luciferase activity and β-galactosidase activities were measured according to the protocol provided by the manufacturer. The resulting luciferase activity was corrected based on the β-galactosidase activity in the same cell extract. For the results shown in FIG. 7B, DDR1b-overexpressing THP-1 cells were transfected with 10 μg of the pGLM-ENH, or pGLM-MA1MA2 (Ueda et al., J. Bio. Chem. 272: 31092-9, 1997) and 5 μg of pSV-β-galactosidese plasmid DNA (Promega, Madison, Wis.) per 100-mm tissue culture plate using Effectene Transfection Reagent (Qiagen, Valencia, Calif.) according to the manufacture's protocol. […] Cells were collected and lysed using the Reporter Lysis Buffer (Promega, Madison, Wis.), and luciferase activity and β-galactosidase activities were measured according to the protocol provided by the manufacturer. […]
Mock-transduced or DDR1b-overexpressing THP-1 cells were transfected with 10 μg of the NF-κB-Luc plasmid, pGL-ENH, or pGL-MA1MA2 and 5 μg of pSV-β-galactosidase plasmid DNA (Promega, Madison, Wis.) per 100-mm tissue culture plate using Effectene Transfection Reagent (Qiagen, Valencia, Calif.) according to the manufacture's protocol. […] Luciferase activity and β-galactosidase activities were measured according to the protocol provided by the manufacturer. […]

p38 MAP kinase = assay: Phosphorylation of p38 MAP kinase in PMA-treated THP-1 cells, Western blotting; conditions: DDR1b-overexpressing cells treated before PMA-treatment
Procedure: Parental, mock, DDR1a- or DDR1b-overexpressing THP-1 cells were plated at 5×10^6/ml on uncoated tissue culture plates and stimulated with PMA (10 nM) for 24 hours, and then starved in RMPI 1640 without FCS for 10 hours. Subsequently cells were washed three times with PBS, and then incubated in the presence of 50 μg/ml collagen type I for various times.
Ten million cells were lysed on ice for 20 minutes in a buffer containing 50 mM NaCl, 20 mM Tris-HCl, 50 mM sodium fluoride, 30 mM Na4P2O7, 5 mM EGTA, 3 mM sodium orthovanadate, 1% Triton X-100, 1 mg/ml leupeptin, 1 mM PMSF, 1 mg/ml aprotinin, 1 mg/ml pepstatinA and 100 μM sodium orthovanadate treated with H2O2. A lysis buffer containing 150 mM NaCl, 50 mM HEPES, 1% Triton-X 10% glycerol, 1 mM sodium fluoride, 1 mM EDTA, 2 mM sodium orthovanadate, 1 mg/ml leupeptin, 1 mM PMSF, 1 mg/ml aprotinin, 1 mg/ml pepstatinA and 100 μM sodium orthovanadate treated with H2O2, was also used for immunoprecipitation with anti-Shc Ab. The lysates were spun in a microcentrifuge for 20 minutes and the supernatants were collected. […]
Eluted proteins were analyzed on 8% polyacrylamide gels by SDS-PAGE and transferred electrophoretically to nitrocellulose membranes at 150 mA for 1 hour by a semi-dry system. […] To detect phosphorylated or nonphosphorylated p38 MAP kinase or ATF-2, 20 μl of cell lysates were directly mixed with 20 μl of sample buffer and then analyzed.
Downstream signaling molecules that may play a role in the up-regulation of HLA-DR in collagen-activated PMA-treated DDR1b-overexpressing cells were identified in the following manner. […] Phosphorylation of p38 MAP kinase was first detected 30 minutes after collagen activation of DDR1b-overexpressing cells and the level of phosphorylation increased thereafter. […] Phosphorylation of p38 MAP kinase was not detected in DDR1a-overexpressing cells up to 120 minutes. […] Phosphorylation of other members of the MAP kinase family, ERK1, ERK2, and JNK could not be detected in collagen-activated PMA-treated DDR1b-overexpressing cells. […]

THP-1 cells [4] = assay: Flow cytometry of HLA-DR, CD11c, CD14, CD40 on PMA-treated THP-1 cells
Procedure: FIG. 5 is a graph showing the effects of collagen-activation of two DDR1 isoforms on the expression of CD11c, CD14, and CD40. Each cell line was plated at 5×10^6 cells/ml on either uncoated or collagen-coated plates and incubated at 37° C. for 24 hours in the presence of 10 nM PMA. Anti-1β integrin antibody (10 μg/ml) was used to block the effect of 1β integrin-collagen interaction. The percentage of CD11c, CD14, or CD40-positive cells is shown. Data are presented as the mean ±SD from three independent experiments.
Parental, mock, DDR1a-overexpressing, or DDR1b overexpressing THP-1 cells were plated at 5×10^6 cells/ml on either uncoated or collagen-coated plates and incubated at 37° C. for 24 or 48 hours in the presence of 10 nM PMA. One hundred thousand cells were suspended in 50 μl of cold PBS containing 0.1% NaN3, […] BSA and 200 μg/ml human IgG in a Falcon 2052 tube, and incubated for 10 minutes on ice. One μg of mouse monoclonal antibody against CD11c, CD14 CD40, or HLA-DR, or control mouse IgG were added to each tube and the cells were incubated for another 15 minutes on ice. The cells were washed with PBS, and then incubated with 1 μg of FITC-conjugated goat anti-mouse IgG for 15 minutes on ice. At the end of incubation, propidium iodide (PI) (100 μM) was added to each tube. The cells were washed by PBS, and subsequently analyzed by using a FACS scan (Becton Dickinson). Dead cells, determined by the incorporation of PI, were gated out. Results were processed by using the Cellquest software (Becton Dickinson).
The cells were then rinsed three times with RPMI 1640 containing 10% FCS, and incubated either with the p38 MAP kinase inhibitor SB203580, the MEK (MAP or ERK kinase) ½ inhibitor PD98059, or dimethylsulfoxide (DMSO) for 30 minutes, followed by an additional 12 hour incubation in the presence of 10 nM PMA plus collagen. The expression of HLA-DR was analyzed by flow cytometry.

DDR1 mRNA = DDR1 mRNA expression in PBMC by Northern blotting; conditions: 8 hours, TNF-α 5 ng/ml, IL-1β 10 ng/ml, IFN-γ 50 U/ml, GM-CSF 10 ng/ml, LPS 1 μg/ml, PHA 5 μg/ml
Procedure: PMN and PBMC were maintained at a density of 5×10^6 cells/ml in the complete medium in six-well tissue culture cluster (Coster, Cambridge, Mass.; 3 ml/well). Total RNA was extracted from each culture by using TRIZOL® Reagent. PolyA mRNA was purified on Oligotex columns (Qiagen, Valencia, Calif.). Northern blot analysis was performed as described (Yoshimura, J. Immunol. 150:5025, 1993), except that ULTRAhyb (Ambion) was used. A human DDR1 cDNA (757-bp) was obtained by PCR from a U-105 human glioblastoma cell line cDNA library and was ligated into the EcoRI/HindIII site of the pBluescript (Stratagene, La Jolla, Calif.). The sense primer was 5′-[…]-3′ (SEQ ID NO: 2; corresponding to residues between 68 and 87 in the nucleotide sequence of the trkE cDNA, GenBank accession number X74979) and the antisense primer was 5′-[…]-3′ (SEQ ID NO: 3; corresponding to residues between 805 and 824 in the nucleotide sequence of the trkE cDNA).
Freshly isolated PBMC expressed only a low level of DDR1 mRNA. The expression level was increased about eightfold when the cells were incubated in either RPMI 1640 or RPMI 1640 containing 10% FCS.

increased NF-κB/DNA binding (NF-κB [2]): completely abolished
Compound: O=C(/C=C/c1ccc(O)c(O)c1)OCCc1ccccc1 [CAPE]
collagen-induced up-regulation of IL-8 release (THP-1 cells [1]): inhibited | collagen-induced up-regulation of MCP-1 release (THP-1 cells [1]): inhibited | collagen-induced up-regulation of MIP-1α release (THP-1 cells [1]): inhibited | increase in luciferase activity induced by PMA plus collagen (NF-κB [3]): completely inhibited

Compound: C[C@@H]1C[C@@H]([C@H](O)CC2CC(=O)NC(=O)C2)C(=O)[C@@H](C)C1 [CHX, cycloheximide, reference compound]
phosphorylation of p38 MAP kinase in response to collagen (p38 MAP kinase): completely inhibited

Compound: COc1cccc(-c2cc(=O)c3ccccc3o2)c1N [PD98059]
expression of HLA-DR (THP-1 cells [4]; collagen-activated PMA-treated DDR1b-overexpressing cells, 24 hours): no effect | collagen-induced up-regulation of IL-1β release (THP-1 cells [1]): no effect | collagen-induced up-regulation of IL-8 release (THP-1 cells [1]): no effect | collagen-induced up-regulation of MCP-1 release (THP-1 cells [1]): no effect | collagen-induced up-regulation of MIP-1α release (THP-1 cells [1]): no effect

Compound: CCCCCCCCCCCCCC(=O)O[C@@H]1[C@@H](C)[C@@]2(O)[C@@H](C=C(CO)C[C@]3(O)C(=O)C(C)=C[C@@H]23)[C@@H]2C(C)(C)[C@]12OC(C)=O [PMA, phorbol 12-myristate 13-acetate, reference compound]
HLA-DR-positive cells (THP-1 cells [4]; parental, mock, DDR1a- or DDR1b-overexpressing THP-1 cells, uncoated plates, 48 hours): 26 to 28%

Compound: IL-1β: human recombinant interleukin-1β
level of DDR1 mRNA expression (DDR1 mRNA): further augmented
